In one data set the test system is HBV. Put plainly: Anti-HBV activity in HepG2.2.15 cells (HBV DNA in culture medium by qPCR). Type of data set: cell-based. Particulars: Hepatitis B virus, HepG2.2.15, 144 h, HepG2.2.15 cells, 6 days treatment, HBV DNA in culture medium quantified by real-time PCR; read-out: EC50. A digest of the protocol: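 Secreted HBV DNA was measured by real-time PCR after 6-day compound exposure of HepG2.2.15 cells (2% FBS, 37 °C, re-dosed after 3 days), giving EC50 from 8-point 1:3 series starting at 10 or 1 uM. Cytotoxicity (CC50) run separately at lower cell density, top 100 uM.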
In general terms: In qPCR the cycle at which signal appears reflects the starting amount.

Data set [1] in a line: Cytotoxicity determination in HepG2.2.15 cells (CCK-8 cell viability). The class given is cell-based. Particulars: human, 6 days treatment, CCK-8 assay, highest concentration 100 uM. A digest of the protocol:
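Viability measured by CCK-8 absorbance (450 nm, 630 nm reference, 2.5 h at 37° C) after six days of treatment, medium and compound renewed on day 3. Top concentration 100 uM, eight threefold dilutions in triplicate; cells plated at 5,000/well in 2% FBS medium; CC50 derived.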

pEC50: −log10 of the molar value.

The term pEC50 denotes −log10 of the EC50, conventionally taken in molar units. For orientation: CC50 means the concentration giving 50% cytotoxicity. Regarding `CCOC(=O)C1=C(CN2CC(F)(F)[C@@H]3[C@H]2CN(C)N3CCOC(C)(C)C(=O)O)NC(c2nccs2)=N[C@H]1c1cccc(F)c1C` (single isomer, unassigned) [Compound 99], the pEC50 in the data set with HBV was 6.81. In data set [1], this molecule showed a CC50 at 6 days of 25000 nM.

With `CCOC(=O)C1=C(CN2CC(F)(F)[C@@H]3[C@H]2CON3CC(C)(C)C(=O)O)NC(c2nccs2)=N[C@H]1c1cccc(F)c1C` (single isomer, unassigned) [Compound 176], the pEC50 with HBV was 8.52. This molecule also displayed a CC50 at 6 days in data set [1] of 24800 nM.

For `COC(=O)C1=C(CN2CC(F)(F)[C@H]3[C@@H]2CCN3C[C@@H](C)C(=O)O)NC(c2nccs2)=N[C@H]1c1cccc(F)c1Cl` (single isomer, unassigned) [Compound 132A, 3-((cis)-4-((6-(2-Chloro-3-fluorophenyl)-5-(methoxycarbonyl)-2-(thiazol-2-yl)-3,6-dihydropyrimidin-4-yl)methyl)-6,6-difluorohexahydropyrrolo[3,2-b]pyrrol-1(2H)-yl)-2-methylpropanoic acid], the pEC50 with HBV is greater than 9.30. Besides, the CC50 at 6 days in data set [1] was 40700 nM.

For the molecule `CCOC(=O)C1=C(CN2CC(F)(F)[C@@H]3[C@H]2CON3C[C@H](CC)C(=O)O)NC(c2nccs2)=N[C@H]1c1cccc(F)c1C` (single isomer, unassigned) [Compound 178B], in the data set with HBV, the pEC50 was 7.92. For the same molecule, the CC50 at 6 days in data set [1] is greater than 50000 nM.

Turning to `CCOC(=O)C1=C(CN2CC(F)(F)[C@H]3[C@@H]2CCN3[C@H]2C[C@@H](CC(=O)O)C2)NC(c2nccs2)=N[C@H]1c1cccc(F)c1C` (single isomer, unassigned) [Compound 123A], the pEC50 in the data set with HBV is 8.10. It took 18600 nM to reach half-maximal cytotoxicity in data set [1] (CC50 at 6 days).

For the molecule `CCOC(=O)C1=C(CN2CC(F)(F)[C@@H]3NCC[C@@H]32)NC(c2nccs2)=N[C@H]1c1cccc(F)c1C` (single isomer, unassigned) [Compound 103], in the data set on HBV, the pEC50 was 7.27. This molecule showed a CC50 at 6 days in data set [1] of 19800 nM.

On to `CCOC(=O)C1=C(CN2C[C@@H](F)[C@@]3(F)CN(CC(C)(C)C(=O)O)C(=O)[C@@H]23)NC(c2nccs2)=N[C@H]1c1cccc(F)c1C` (single isomer, unassigned) [Compound 203A], for which the pEC50 in the data set with HBV is 7.78. Half-maximal cytotoxicity in data set [1] (CC50 at 6 days) was put at 44600 nM.

In the case of `CCOC(=O)C1=C(CN2CC(F)(F)[C@@H]3CN(C(=O)[C@@H]4C[C@@H]4C(=O)O)C[C@@H]32)NC(c2nccs2)=N[C@H]1c1cccc(F)c1C` (single isomer, unassigned) [Compound 57B], the pEC50 with HBV was 7.04. For the same molecule, it took 51200 nM to reach half-maximal cytotoxicity in data set [1] (CC50 at 6 days).

For the molecule `CCOC(=O)C1=C(CN2CC(F)(F)[C@H]3[C@@H]2CCN3CCCC(C)(C)C(=O)O)NC(c2nccs2)=N[C@H]1c1cccc(F)c1C` (single isomer, unassigned) [Compound 144], in the data set with HBV, the pEC50 was 7.70. The molecule further displayed a CC50 at 6 days in data set [1] of 20200 nM.

As for `CCOC(=O)C1=C(CN2CC(F)(F)[C@H]3CN([C@@H](C)C(=O)O)C[C@H]32)NC(c2nccs2)=N[C@H]1c1cccc(F)c1C` (single isomer, unassigned) [Compound 14F], the pEC50 in the data set on HBV is 6.90. The molecule also gave a CC50 at 6 days in data set [1] greater than 100000 nM.

`CCOC(=O)C1=C(CN2CC(F)(F)C3C(=O)N(CC(C)(C)C(=O)O)C[C@@H]32)NC(c2nccs2)=N[C@@H]1c1ccc(Cl)c(F)c1` (single isomer, unassigned) [Compound 211, 3-((cis)-1-((6-(4-chloro-3-fluorophenyl)-5-(ethoxycarbonyl)-2-(thiazol-2-yl)-3,6-dihydropyrimidin-4-yl)methyl)-3,3-difluoro-4-oxohexahydropyrrolo[3,4-b]pyrrol-5(1H)-yl)-2,2-dimethylpropanoic acid]: the pEC50 with HBV was 7.44. This molecule registered a CC50 at 6 days in data set [1] greater than 50000 nM.

For the molecule `CCOC(=O)C1=C(CN2CC(F)(F)[C@@H]3[C@H]2CON3CCC(C)(C)C(=O)O)NC(c2nccs2)=N[C@H]1c1ccc(F)c(F)c1F` (single isomer, unassigned) [Compound 175, 4-((cis)-4-((5-(Ethoxycarbonyl)-2-(thiazol-2-yl)-6-(2,3,4-trifluorophenyl)-3,6-dihydropyrimidin-4-yl)methyl)-6,6-difluorohexahydro-1H-pyrrolo[3,2-c]isoxazol-1-yl)-2,2-dimethylbutanoic acid], the pEC50 with HBV was 8.10. The same molecule gave a 50% cytotoxic concentration (CC50) at 6 days in data set [1] greater than 50000 nM.

With `CCOC(=O)C1=C(CN2CC(F)(F)[C@H]3[C@@H]2CCN3CCC(C)(C)C(=O)O)NC(c2ncoc2C)=N[C@@H]1c1cccc(F)c1C` (relative stereo) [Compound 107, 4-(4-((5-(ethoxycarbonyl)-6-(3-fluoro-2-methylphenyl)-2-(5-methyloxazol-4-yl)-3,6-dihydropyrimidin-4-yl)methyl)-6,6-difluorohexahydropyrrolo[3,2-b]pyrrol-1(2H)-yl)-2,2-dimethylbutanoic acid], the pEC50 in the data set with HBV is 7.95. This molecule gave a CC50 at 6 days in data set [1] of 42500 nM.

On to `CCOC(=O)C1=C(CN2CC(F)(F)[C@H]3[C@@H]2CC(=O)N3[C@H]2CC[C@@H](C(=O)O)CC2)NC(c2nccs2)=N[C@H]1c1cccc(F)c1C` (single isomer, unassigned) [Compound 158A], for which the pEC50 in the data set on HBV is 7.27. In addition, in data set [1], the CC50 at 6 days came to 27900 nM.

On to `CCOC(=O)C1=C(CN2CC(F)(F)[C@@H]3[C@H]2CN(C(C)=O)N3CCC(C)(C)C(=O)O)NC(c2nccs2)=N[C@H]1c1ccc(F)c(F)c1F` (single isomer, unassigned) [Compound 83A, 4-((cis)-2-acetyl-4-((5-(ethoxycarbonyl)-2-(thiazol-2-yl)-6-(2,3,4-trifluorophenyl)-3,6-dihydropyrimidin-4-yl)methyl)-6,6-difluorohexahydropyrrolo[3,2-c]pyrazol-1(2H)-yl)-2,2-dimethylbutanoic acid], for which the pEC50 in the data set with HBV is 7.34. The same molecule gave a CC50 at 6 days in data set [1] of 73500 nM.

`CCOC(=O)C1=C(CN2CC(F)(F)[C@@H]3[C@H]2CN(CC)N3CCC(C)(C)C(=O)O)NC(c2nccs2)=N[C@H]1c1cccc(F)c1C` (single isomer, unassigned) [Compound 90]: the pEC50 in the data set with HBV was 7.69. In data set [1], this molecule returned a 50% cytotoxic concentration (CC50) at 6 days of 19200 nM.

Turning to `CCOC(=O)C1=C(CN2CC(F)(F)[C@H]3[C@@H]2C(=O)N(CC(C)(C)C(=O)O)N3C)NC(c2nccs2)=N[C@H]1c1cccc(F)c1C` (single isomer, unassigned) [Compound 88], the pEC50 with HBV was 8.82. The same molecule displayed a CC50 at 6 days in data set [1] of 60000 nM.

Consider `CCOC(=O)C1=C(CN2C[C@H](F)[C@]3(F)C(=O)N(CC(C)(C)C(=O)O)C[C@H]23)NC(c2nccs2)=N[C@H]1c1cccc(F)c1C` (single isomer, unassigned) [Compound 204B], for which the pEC50 in the data set with HBV was 6.99. In addition, it took 72100 nM to reach half-maximal cytotoxicity in data set [1] (CC50 at 6 days).

For `CCOC(=O)C1=C(CN2C[C@H](F)[C@@]3(F)C(=O)N(CC(C)(C)C(=O)O)C[C@@H]23)NC(c2nccs2)=N[C@H]1c1cccc(F)c1C` (single isomer, unassigned) [Compound 204C], in the data set with HBV, the pEC50 is 8.15. The same molecule gave a CC50 at 6 days in data set [1] of 36900 nM.

As to `CCOC(=O)C1=C(CN2CC(F)(F)[C@H]3[C@@H]2CCN3CCOC(C)(C)C(=O)O)NC(c2nccs2)=N[C@H]1c1cccc(F)c1C` (single isomer, unassigned) [Compound 111], the pEC50 with HBV is 8.11. Half-maximal cytotoxicity in data set [1] (CC50 at 6 days) was put at 33400 nM.

For the molecule `CCOC(=O)C1=C(CN2CC(F)(F)[C@@H]3CN(C(=O)OC(C)(C)C(=O)O)C[C@@H]32)NC(c2nccs2)=N[C@H]1c1cccc(F)c1C` (single isomer, unassigned) [Compound 60], the pEC50 in the data set with HBV is 7.30. Besides, in data set [1], the midpoint of cytotoxicity, the CC50 at 6 days, lay at 29400 nM.

Regarding `CCOC(=O)C1=C(CN2CC(F)(F)[C@H]3[C@@H]2CC(=O)N3CCCC(C)(C)C(=O)O)NC(c2nccs2)=N[C@H]1c1cccc(F)c1C` (single isomer, unassigned) [Compound 156], in the data set with HBV, the pEC50 was 7.20. The molecule also gave a CC50 at 6 days in data set [1] of 10300 nM.

With `CCOC(=O)C1=C(CN2CC(F)(F)[C@@H]3CN(CC(C)(C)C(=O)O)C[C@@H]32)NC(c2nccs2)=N[C@H]1c1cccc(F)c1C` (single isomer, unassigned) [Compound 12B], in the data set with HBV, the pEC50 was 8.09. The molecule also returned a CC50 at 6 days in data set [1] of 86100 nM.

For `CCOC(=O)C1=C(CN2CC(F)(F)[C@@H]3CN(C(=O)C4(C(=O)O)CC4)C[C@@H]32)NC(c2nccs2)=N[C@H]1c1cccc(F)c1C` (single isomer, unassigned) [Compound 10], in the data set with HBV, the pEC50 is 7.09. The molecule further gave a CC50 at 6 days in data set [1] of 69600 nM.

On to `CCOC(=O)C1=C(CN2CC(F)(F)[C@H]3[C@@H]2CN(CC(C)(C)C(=O)O)N3C)NC(c2nccs2)=N[C@H]1c1cccc(F)c1C` (relative stereo) [Compound 87, 3-((cis)-4-(((S)-5-(ethoxycarbonyl)-6-(3-fluoro-2-methylphenyl)-2-(thiazol-2-yl)-3,6-dihydropyrimidin-4-yl)methyl)-6,6-difluoro-1-methylhexahydropyrrolo[3,2-c]pyrazol-2(1H)-yl)-2,2-dimethylpropanoic acid], for which the pEC50 in the data set with HBV was 7.85. In data set [1], this molecule came in with a CC50 at 6 days greater than 50000 nM.

In the case of `CCOC(=O)C1=C(CN2CC(F)(F)C3[C@@H]2CCN3[C@H]2C[C@@](C)(C(=O)O)C2)NC(c2nccs2)=N[C@H]1c1cccc(F)c1C` (single isomer, unassigned) [Compound 112B], the pEC50 in the data set on HBV is 8.33. This molecule came in with a cytotoxic concentration (CC50) at 6 days in data set [1] of 23600 nM.

(Values after patent US20230083012A1, “DIHYDROPYRIMIDINE DERIVATIVES AND USES THEREOF IN THE TREATMENT OF HBV INFECTION OR OF HBV-INDUCED DISEASES” (priority 2019, published 2023).)
